What was measured:
Wistar rats [1] = experiment: Extended one-generation reproductive toxicity study (OECD TG 443); format: in vivo, rat; conditions: for NOAEL, EOGRTS: developmental and reproductive toxicity: OECD 443 v 2018, oral gavage
Excerpt: (§1) Healthy and specific pathogen-free male and female (non-pregnant and nulliparous) Wistar Crl: WI(Han) rats were obtained from Charles River Laboratories (Germany). […] Upon arrival at BSL BIOSERVICE, the animals underwent an acclimatisation period of at least 5 days, and they were approximately 15–16 weeks old at the onset of the treatment period.

bacteria = conditions: OECD 471; ref ECHA dissemination portal; cited from earlier work
Wistar rats [2] = experiment: 90-day repeated dose oral toxicity study (OECD TG 408); format: in vivo, rat; conditions: for NOAEL, 90-day repeated-dose toxicity: OECD 408 v 2018, oral gavage
Excerpt: as §1

in vivo = conditions: for concentration at 1 h / Tmax / AUC(0-t) / Cmax: Wistar, rat, serum; for concentration at 1 h: oral; for Tmax / AUC(0-t) / Cmax: po
How it was run: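 Test item given by oral gavage at 500 and 1000 mg/kg bw to 10 males and 10 females per dose group, following OECD TG 417. Serum parent parabens and the metabolite p-hydroxybenzoic acid were measured by […] (LOQ 10 ng/mL parabens, 130 ng/mL p-hydroxybenzoic acid). Faeces and urine were not analysed.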

[3] = parent compound, 500 mg/kg, female
[4] = parent compound, 500 mg/kg, male
[5] = parent compound, 1000 mg/kg, female
[6] = parent compound, 1000 mg/kg, male

For `COC(=O)c1ccc(O)cc1` [Methyl paraben, Methyl 4-hydroxybenzoate], the “Developmental immunotoxicity (DIT)” value (Wistar rats [1]; DIT cohort) was “did not exhibit”, the “Developmental neurotoxicity (DNT)” value (Wistar rats [1]; DNT cohort) was “did not exhibit DNT” and the “NOAEL, EOGRTS: developmental and reproductive toxicity” value (Wistar rats [1]) was “NOAEL: 1000 (OECD 443; v 2018) mg/kg body weight/day”. The “NOAEL, EOGRTS: developmental and reproductive toxicity” value (Wistar rats [1]; listed as methyl paraben) was 1000 mg/kg body weight/day, the “Accessory sex organs HP” value (Wistar rats [1]; P0, F1, (F2)) was “NAE / NAE” and the “Adrenals HP” value (Wistar rats [1]; P0, F1, (F2)) was “NAE / NAE”. For the same molecule, the Adrenals weight (Wistar rats [1]; P0, F1, (F2)) was “NAE / NAE”, the “Age at balano-preputial separation” value (Wistar rats [1]; P0, F1, (F2)) was “NAE / NAE” and the “Age at vaginal opening” value (Wistar rats [1]; P0, F1, (F2)) was “NAE / NAE”. The Anogenital distance (Wistar rats [1]; P0, F1, (F2)) was “NAE / NAE”, the Auditory startle (Wistar rats [1]; P0, F1, (F2)) was “NAE / NAE” and the “Brain HP” value (Wistar rats [1]; P0, F1, (F2)) was “NAE / NAE”. For the same molecule, the Brain morphometric evaluation (Wistar rats [1]; P0, F1, (F2)) was “NAE / NAE”, the Brain weight (Wistar rats [1]; P0, F1, (F2)) was “NAE / NAE” and the “Cervix HP” value (Wistar rats [1]; P0, F1, (F2)) was “NAE / NAE”. For the same molecule, the “Coagulating gland HP” value (Wistar rats [1]; P0, F1, (F2)) was “NAE / NAE”, the Coagulating gland weight (Wistar rats [1]; P0, F1, (F2)) was “NAE / NAE” and the “Colloid area (thyroid HP)” value (Wistar rats [1]; P0, F1, (F2)) was “NAE / NAE”. For the same molecule, the Dystocia (Wistar rats [1]; P0, F1, (F2)) was “NAE / NAE”, the “Epididymis HP” value (Wistar rats [1]; P0, F1, (F2)) was “NAE / NAE” and the Epididymis weight (Wistar rats [1]; P0, F1, (F2)) was “NAE / NAE”. For the same molecule, the Fertility (Wistar rats [1]; P0, F1, (F2)) was “NAE / NAE”, the Foetal development (Wistar rats [1]; P0, F1, (F2)) was “NAE / NAE” and the Functional observation battery (Wistar rats [1]; P0, F1, (F2)) was “NAE [h] / NAE”. The Gestation length (Wistar rats [1]; P0, F1, (F2)) was “NAE / NAE”, the Litter size (Wistar rats [1]; P0, F1, (F2)) was “NAE / NAE” and the Litter viability (Wistar rats [1]; P0, F1, (F2)) was “NAE / NAE”. The Liver weight (Wistar rats [1]; P0, F1, (F2)) was “NAE / NAE”, the “Mammary gland HP; females” value (Wistar rats [1]; P0, F1, (F2)) was “NAE / NAE” and the “Mammary gland HP; males” value (Wistar rats [1]; P0, F1, (F2)) was “NAE / NAE”. The Motor activity (Wistar rats [1]; P0, F1, (F2)) was “NAE / NAE”, the Nipple development (Wistar rats [1]; P0, F1, (F2)) was “NAE / NAE” and the “No. of implantations, corpora lutea” value (Wistar rats [1]; P0, F1, (F2)) was “NAE / NAE”. For the same molecule, the “No. of live births” value (Wistar rats [1]; P0, F1, (F2)) was “NAE / NAE”, the “No. of ovarian follicles” value (Wistar rats [1]; P0, F1, (F2)) was “NAE / NAE” and the Oestrus cyclicity (Wistar rats [1]; P0, F1, (F2)) was “NAE / NAE”. The “Offspring: learning & memory” value (Wistar rats [1]; P0, F1, (F2)) was “NAE / NAE”, the “Ovary HP” value (Wistar rats [1]; P0, F1, (F2)) was “NAE / NAE” and the Ovary weight (Wistar rats [1]; P0, F1, (F2)) was “NAE / NAE”. The “Oviduct HP” value (Wistar rats [1]; P0, F1, (F2)) was “NAE / NAE”, the “Pituitary HP” value (Wistar rats [1]; P0, F1, (F2)) was “NAE / NAE” and the Pituitary weight (Wistar rats [1]; P0, F1, (F2)) was “NAE / NAE”. For the same molecule, the Postimplantation loss (Wistar rats [1]; P0, F1, (F2)) was “NAE / NAE”, the “Presence of anomalies (external, visceral, skeletal)” value (Wistar rats [1]; P0, F1, (F2)) was “NAE / NAE” and the “Prostate HP” value (Wistar rats [1]; P0, F1, (F2)) was “NAE / NAE”. The Prostate weight (Wistar rats [1]; P0, F1, (F2)) was “NAE / NAE”, the Pup development (Wistar rats [1]; P0, F1, (F2)) was “NAE / NAE” and the Reproduction (Wistar rats [1]; P0, F1, (F2)) was “NAE / NAE”. For the same molecule, the “Seminal vesicles HP” value (Wistar rats [1]; P0, F1, (F2)) was “NAE / NAE”, the Seminal vesicles weight (Wistar rats [1]; P0, F1, (F2)) was “NAE / NAE” and the Sperm morphology (Wistar rats [1]; P0, F1, (F2)) was “NAE / NAE”. For the same molecule, the Sperm motility (Wistar rats [1]; P0, F1, (F2)) was “NAE / NAE”, the Sperm numbers (Wistar rats [1]; P0, F1, (F2)) was “NAE / NAE” and the “Testis HP” value (Wistar rats [1]; P0, F1, (F2)) was “NAE / NAE”. The Testis weight (Wistar rats [1]; P0, F1, (F2)) was “NAE / NAE”, the “Thyroid HP” value (Wistar rats [1]; P0, F1, (F2)) was “NAE / NAE” and the “Thyroid stimulating hormone level” value (Wistar rats [1]; P0, F1, (F2)) was “NAE / NAE”. The Thyroid weight (Wistar rats [1]; P0, F1, (F2)) was “NAE / NAE”, the Time to mating (Wistar rats [1]; P0, F1, (F2)) was “NAE / NAE” and the “Triiodothyronine / thyroxine level” value (Wistar rats [1]; P0, F1, (F2)) was “NAE / NAE”. For the same molecule, the “Uterus HP (with cervix)” value (Wistar rats [1]; P0, F1, (F2)) was “NAE / NAE”, the “Uterus weight (with cervix)” value (Wistar rats [1]; P0, F1, (F2)) was “NAE / NAE” and the “Vagina HP” value (Wistar rats [1]; P0, F1, (F2)) was “NAE / NAE”. The Vaginal smears (Wistar rats [1]; P0, F1, (F2)) was “NAE / NAE”, the “Alterations of the parameters addressed in OECD TG 443” value (Wistar rats [1]; up to 1000 mg/kg bw/day) was “no toxicologically relevant alterations” and the “Mutagenicity in bacteria classification” value (bacteria) was “Not mutagenic (OECD 471; 1982, 1991)”. The “NOAEL, 90-day repeated-dose toxicity” value (Wistar rats [2]) was “NOAEL: 1000 (OECD 408; v 2018) mg/kg body weight/day”, the “NOAEL, 90-day repeated-dose toxicity” value (Wistar rats [2]; listed as methyl paraben) was 1000 mg/kg body weight/day and the “Accessory sex organs HP” value (Wistar rats [2]; P0) was “NAE / NAE”. For the same molecule, the “Adrenals HP” value (Wistar rats [2]; P0) was “NAE / NAE”, the Adrenals weight (Wistar rats [2]; P0) was “NAE / NAE” and the Brain weight (Wistar rats [2]; P0) was “NAE / NAE”. The “Cervix HP” value (Wistar rats [2]; P0) was “NAE / NAE”, the “Coagulating gland HP” value (Wistar rats [2]; P0) was “NAE / NAE” and the Coagulating gland weight (Wistar rats [2]; P0) was “NAE / NAE”. The “Epididymis HP” value (Wistar rats [2]; P0) was “NAE / NAE”, the Epididymis weight (Wistar rats [2]; P0) was “NAE / NAE” and the Liver weight (Wistar rats [2]; P0) was “NAE / NAE”. The “Mammary gland HP; females” value (Wistar rats [2]; P0) was “NAE / NAE”, the “Mammary gland HP; males” value (Wistar rats [2]; P0) was “NAE / NAE” and the Oestrus cyclicity (Wistar rats [2]; P0) was “NAE / NAE”. For the same molecule, the “Ovary HP” value (Wistar rats [2]; P0) was “NAE / NAE”, the Ovary weight (Wistar rats [2]; P0) was “NAE / NAE” and the “Oviduct HP” value (Wistar rats [2]; P0) was “NAE / NAE”. The “Pituitary HP” value (Wistar rats [2]; P0) was “NAE / NAE”, the Pituitary weight (Wistar rats [2]; P0) was “NAE / NAE” and the “Prostate HP” value (Wistar rats [2]; P0) was “NAE / NAE”. The Prostate weight (Wistar rats [2]; P0) was “NAE / NAE”, the “Seminal vesicles HP” value (Wistar rats [2]; P0) was “NAE / NAE” and the Seminal vesicles weight (Wistar rats [2]; P0) was “NAE / NAE”. For the same molecule, the “Testis HP” value (Wistar rats [2]; P0) was “NAE / NAE”, the Testis weight (Wistar rats [2]; P0) was “NAE / NAE” and the “Thyroid HP” value (Wistar rats [2]; P0) was “NAE / NAE”. For the same molecule, the “Thyroid stimulating hormone level” value (Wistar rats [2]; P0) was “NAE / NAE”, the Thyroid weight (Wistar rats [2]; P0) was “NAE / NAE” and the “Triiodothyronine / thyroxine level” value (Wistar rats [2]; P0) was “NAE / NAE”. For the same molecule, the “Uterus HP (with cervix)” value (Wistar rats [2]; P0) was “NAE / NAE”, the “Uterus weight (with cervix)” value (Wistar rats [2]; P0) was “NAE / NAE” and the “Vagina HP” value (Wistar rats [2]; P0) was “NAE / NAE”. For the same molecule, the Vaginal smears (Wistar rats [2]; P0) was “NAE / NAE”, the “Signs of systemic toxicity” value (Wistar rats [2]; sub-chronic (90-day) oral application) was “did not induce any signs of systemic toxicity” and the concentration at 1 h (in vivo; female, 500 mg/kg) was 338 ng/mL. The concentration at 1 h (in vivo; female, 1000 mg/kg) was 924 ng/mL, the Tmax (in vivo; female, 500 mg/kg) was 4.8 min and the AUC(0-t) (in vivo; female, 500 mg/kg, AUC0-1 h, parent compound) was 6450 ng·h/mL. For the same molecule, the AUC(0-t) (in vivo; female, 500 mg/kg, AUC0–t, parent compound) was 9500 ng·h/mL, the Cmax (in vivo; female, 500 mg/kg, parent compound) was 21200 ng/mL and the Tmax (in vivo; female, 1000 mg/kg) was 4.8 min. The AUC(0-t) (in vivo; female, 1000 mg/kg, AUC0-1 h, parent compound) was 11400 ng·h/mL, the AUC(0-t) (in vivo; female, 1000 mg/kg, AUC0–t, parent compound) was 20500 ng·h/mL and the Cmax (in vivo; female, 1000 mg/kg, parent compound) was 33600 ng/mL. The Cmax (in vivo; female, 1000 mg/kg, parent compound, females) was ~34000 ng/mL, the concentration at 1 h (in vivo; male, 500 mg/kg) was 172 ng/mL and the concentration at 1 h (in vivo; male, 1000 mg/kg) was 552 ng/mL. The Tmax (in vivo; male, 500 mg/kg) was 4.8 min, the AUC(0-t) (in vivo; male, 500 mg/kg, AUC0-1 h, parent compound) was 1110 ng·h/mL and the AUC(0-t) (in vivo; male, 500 mg/kg, AUC0–t, parent compound) was 1790 ng·h/mL. For the same molecule, the Cmax (in vivo; male, 500 mg/kg, parent compound) was 6200 ng/mL, the AUC(0-t) (in vivo; male, 1000 mg/kg, AUC0-1 h, parent compound) was 4640 ng·h/mL and the AUC(0-t) (in vivo; male, 1000 mg/kg, AUC0–t, parent compound) was 6150 ng·h/mL. The Cmax (in vivo; male, 1000 mg/kg, parent compound) was 10800 ng/mL, the Cmax (in vivo; male, 1000 mg/kg, parent compound, males) was ~11000 ng/mL and the “Rank of maximum serum concentration among the four parabens” value (in vivo; parent compound) was “highest maximum serum concentrations”. The “AUC0-1 h/AUC0–t” value (in vivo; [3]) was 68%, the C1h/Cmax (in vivo; [3]) was 1.6% and the Clast (in vivo; [3]) was 77.3 ng/mL. The tlast (in vivo; [3]) was 8.0 h, the “AUC0-1 h/AUC0–t” value (in vivo; [4]) was 62% and the C1h/Cmax (in vivo; [4]) was 2.8%. For the same molecule, the Clast (in vivo; [4]) was 48.6 ng/mL, the tlast (in vivo; [4]) was 8.0 h and the “AUC0-1 h/AUC0–t” value (in vivo; [5]) was 55%. The C1h/Cmax (in vivo; [5]) was 2.7%, the Clast (in vivo; [5]) was 179 ng/mL and the tlast (in vivo; [5]) was 8.0 h. For the same molecule, the “AUC0-1 h/AUC0–t” value (in vivo; [6]) was 75%, the C1h/Cmax (in vivo; [6]) was 5.1% and the Clast (in vivo; [6]) was 122 ng/mL. The tlast (in vivo; [6]) was 8.0 h.
